Assay results: patent publication US20050154046A1, “Methods of treating an inflammatory-related disease” (priority 2004, published 2005)
“Also recorded” adds a separate entry of the source.

Legend:
[1] = test system: IL-6 mRNA; assay: IL-6 transcription (real time PCR) in LPS-stimulated THP-1 cells; assay type: cell-based, human; conditions: 1 μM, 1 μg/ml LPS, 24 h
Protocol: Real Time PCR: The effect of Meisoindigo on the transcription of IL-6 (RNA levels) was determined by a technique of real time polymerase chain reaction (real time PCR). Total RNA was extracted using a Qiagen […] the HPRT gene was used as internal control. Human monocytic THP-1 cells at exponential growth phase were exposed to 1 μg/ml of LPS, 1 μM of Meisoindigo, or 1 μg/ml of LPS plus 1 μM of Meisoindigo for 24 hours. The cells were then harvested, washed and total RNA extracted for real time PCR assay. Total RNA (300 ng) was treated with DNase I (Promega, Madison, Wis.), and SuperScript II (Invitrogen, Carlsbad, Calif.) and oligo(dT) were used for reverse transcription according to the manufacturers' instructions. Real-time PCR reactions were performed in a 25-μL volume containing diluted cDNA, Sybr Green PCR Master Mix (Applied Biosystems), and 2.5 μM each IL-6 gene-specific primer: […] and […] An ABI SDS7700 analyzer (Applied Biosystems) was used at 50° C. for 2 minutes and 95° C. for 10 minutes, followed by 40 cycles at 95° C. for 15 seconds and 60° C. for 1 minute. Test cDNA results were normalized to HPRT internal control measured on the same plate. After cycling, the specificity of amplification was validated by the generation of a melting curve through slow denaturation of the PCR products and then by gel electrophoresis.

[2] = test system: TNF-α mRNA; assay: TNF-α transcription (real time PCR) in LPS-stimulated THP-1 cells; assay type: cell-based, human; conditions: 4 μM, 24 h
Protocol: The effect of Meisoindigo on the transcription of TNF-α (RNA levels) was determined by a technique of real time PCR using the same procedures described in Example 2, except the specific primers for TNF-α were used as follows: 5′-[…], and 5′[…]. Total RNA was extracted using a Qiagen Rneasy minit kit, and the HPRT gene was used as internal control.
Human monocytic THP-1 cells grown exponentially were exposed to […] of LPS, 4 μM of Meisoindigo, or 1 μg/ml of LPS plus 4 μM of Meisoindigo for 24 hours. The cells were then harvested, washed and total RNA extracted for real time PCR assay as described in Example 2.

[3] = test system: THP-1 cells; assay: Viability of THP-1 cells by trypan blue staining; assay type: cell-based, human; conditions: up to 8 μM
Protocol: Methods: The cells were stimulated with or without […] of lipopolysaccharide (LPS, Sigma), and exposed for 24 hours to different concentrations of Meisoindigo (from 31.25 nM to 16,000 nM). Viability of cells was examined under microscope after trypan blue staining. Protein levels of IL-1β secreted into the culture media by the cells were then measured by ELISA and calculated from its standard curve using an assay Kit from R&D Systems according to instructions provided by the supplier. The method was established and validated by a good standard curve obtained.

[4] = test system: IL-1β; assay: IL-1β secretion (ELISA) in LPS-stimulated THP-1 cells; assay type: cell-based, human
Protocol: It was prepared in a solution of dimethyl sulfoxide (DMSO), and stored under −20° C. for the experiments in vitro. Human monocytic cell line, THP-1 (90), was purchased from ATCC. The cells were maintained according to the supplier's instructions. Approximately 1×10^5 cells/ml were cultured at 37° C., 5% CO2 for 24 hours in Modified RPMI-1640 Medium (Invitrogen) supplemented with 10% FBS.
Statistical Analysis: All data were expressed as a mean±SD. Statistical significance of any difference between the control (LPS) and experimental groups was determined by the Student's t-test. P values between the 2 groups must be at least smaller than 0.05 to be considered statistically significant.
1) Effects of Meisoindigo and NATURA on the expression/secretion of cytokines IL-1β, IL-6, IL-10: The human monocytic THP-1 cells grown exponentially were stimulated with or without 1 μM of lipopolysaccharide (LPS, Sigma), and exposed for 24 hours to different concentrations of Meisoindigo and NATURA (from 31.25 nM and 62.5 nM), respectively. Viability of cells was examined by trypan blue exception assay.

[5] = test system: cyclin D1; assay: Cyclin D1 levels in THP-1 cells; assay type: cell-based, human; conditions: 31.25 and 62.5 nM, 24 h; data not shown
[6] = test system: idiopathic inflammatory bowel disease; assay type: in vivo, human
Protocol: The first diagnosis was performed at North Shore University Hospital Manhasset, Long Island, N.Y. in 1999 by colonoscope. Major symptoms included diarrhea, loose stool and bleeding while their overall condition of health was considered excellent. Clinical-activity index (Table 5) (113) was determined to be between 7 and 8. Their physician prescribed hydrocortisone foam, which they administered for 10 days according to doctor's instructions. […] In early 2002, they went to a well-known and respected Chinese Medical Hospital in Beijing where Flexible Sigmoidoscopy was performed. Again, they were diagnosed as having active inflammatory bowel disease.
At this time, as previous treatments had no effect, their physician prescribed several traditional Chinese medicines. They administered these for several months, yet no improvement of their symptoms resulted. During the period of February 2000 to the summer of 2002, they also tried various other traditional Chinese medicines due to the continued and very troublesome nature of their disease, but nothing was successful. Upon returning to the United States in 2002, they went to the Mount Sinai Medical Center, a nationally recognized American center for the treatment of inflammatory bowel disease. In October 2002, their new physician again performed a colonoscope, together with a histological examination of two biopsy samples (A and B) (FIG. 8, panel A, before the treatment).
These included skin itch, abdominal cramping, pain and bleeding. They then asked their physician for advice and was instructed to use this medication on an intermittently. However, the side effects continued actually worsened each time the medication was used. They then halted all application of this medication.
The patient voluntarily administered Meisoindigo at a recommended dose of 25 mg, once a day for a scheduled three weeks of treatment. […] After nine weeks of remission (three weeks on the medicine, three weeks off of the medicine, and three weeks on the medicine again), the patient again visited their physician and requested a Flexible Sigmoidoscopy to determine if their remission was subjective or objective. The Flexible Sigmoidoscopy was performed on Nov. 4, 2003. After reviewing the results their physician concluded that their inflammation completely arrested.

[7] = 25 mg once a day, before treatment 0
[8] = 25 mg once a day, before treatment 1
[9] = 25 mg once a day, before treatment 2

Q: How did the “LPS-induced IL-6 transcription” value [1] turn out when CN1C(=O)/C(=C2/C(=O)Nc3ccccc32)c2ccccc21 [Meisoindigo] was run?
A: completely suppressed; also recorded: significantly inhibits

Q: What about the “effect on TNF-α mRNA levels / transcription” value [2] of the same compound?
A: No effect

Q: What about the cell deaths [3] of the same compound?
A: no cell deaths were observed

Q: What about the “reduction of the LPS mediated IL-1β secretion” value ([4]; 31.25 nM, 24 h, LPS-stimulated THP-1 cells) of the same compound?
A: over 50%

Q: What about the “IL-1β (Inhibition), Percentage of Maximal Response Without Cytotoxicity” value ([4]; LPS-stimulated THP-1 cells, LPS alone 100.00) of the same compound?
A: 48.76 ± 3.68%

Q: And the “effect on IL-1β production” value ([4]; as low as 31.25 nM (31.25 and 62.5 nM in FIG. 6), 24 h)?
A: significantly inhibit

Q: And the “further reduction of IL-1β secretion on increasing the concentration” value ([4]; up to 8 μM)?
A: did not result in further reduction

Q: What about the “effect on levels of cyclin D1” value [5] of the same compound?
A: failed to inhibit

Q: And the clinical response ([6]; 25 mg once a day, after the first three doses)?
A: complete remission

Q: What about the “Patient Score After Treatment: Abdominal tenderness” value [6, 7] of the same compound?
A: 0

Q: And the “Patient Score After Treatment: Nocturnal diarrhea” value [6, 7]?
A: 0

Q: What about the “Patient Score After Treatment: Abdominal pain or cramping” value [6, 8] of the same compound?
A: 0

Q: What about the “Patient Score After Treatment: Fecal incontinence” value [6, 8] of the same compound?
A: 0

Q: And the “Patient Score After Treatment: Need for antidiarrhea drugs” value [6, 8]?
A: 0

Q: What about the “Patient Score After Treatment: Diarrhea (No. of daily stools)” value [6, 9] of the same compound?
A: 0

Q: What about the “Patient Score After Treatment: General well-being” value [6, 9] of the same compound?
A: 0

Q: What about the “Patient Score After Treatment: Visible blood in stool (% of movements)” value [6, 9] of the same compound?
A: 0

Q: What about the “Flexible Sigmoidoscopy / pathological examination after treatment” value ([6]; after nine weeks of remission (three weeks on, three off, three on)) of the same compound?
A: inactive chronic protocolitis suggestive of idiopathic inflammatory bowel disease

Q: What about the “total amount of drug needed to obtain a complete cure of the inflammatory bowel disease” value ([6]; human, in vivo) of the same compound?
A: 525 mg
